Test results as given in patent US6346543B1, “Use of a taxoid to treat abnormal cell proliferation in the brain” (priority 1998, dated 2002).
Where “and” joins values, the source holds several entries; their conditions need not be identical. Equal values may be shown once.

Experiments:
[1] = tested on: intracranially implanted human glioblastoma U251; assay: Antitumor activity against intracranially implanted U251 glioblastoma in NCr-nu mice (RP-36); assay type: in vivo; settings: for DAYS OF DEATH: individual animals
Description: The treatment schedule of the intracranially implanted U251 glioblastoma cells was iv, once daily, every sixth day for three treatments (q6d×3), beginning on day four post-implant. […] For the intracranially implanted studies, the compounds were evaluated based on their ability to increase the life span of the animals. The positive control used for both of these tumor models was nitrosourea.
The oversight committee was the Southern Research Institutional Animal Care and Use Committee; the protocol used was IACUC No. 96-8-50.
(§1) Product (Ia) was prepared in 5% ethanol, 5% tween 80, 90% D5W
(§2) Product (Ia) was administered in 0.4 ml/mouse based on a total body weight average.
(§3) Nitrosourea was administered 0.1 ml/10 g of body weight.
(§4) Any intracranially implanted animal that appeared to be moribund was euthanized for humane purposes. Since efficacy studies fall within this category of basic research, experiment termination was based on resultants that were determined to be optimal.
Six to eight week old athymic NCr-nu female mice were used for the intracranially implanted U251 trials.
The cells were injected into the cerebrum to the right of the midline with a 25 gauge, ⅜ inch, stainless steel needle. Cultured cells were used for the U251 experiment (RP-36). The treatment schedule was q6d×3, iv, beginning on day four, post-implant. […] The treatment schedule was q4d×3, iv, beginning on day two, post-implant. Nitrosourea was given in each experiment for comparative purposes because of its known activity against CNS tumors.

[2] = tested on: intracranially implanted human glioblastoma SF-295; assay: Antitumor activity against intracranially implanted SF-295 glioblastoma in NCr-nu mice (RP-38); assay type: in vivo; settings: for DAYS OF DEATH: individual animals
Text: Four studies were initiated to evaluate the response of U251 and SF-295 glioblastomas to treatment with product (Ia). In the two studies, U251 and SF-295 glioblastomas were initiated from intracranially implanted cells at a volume of 10^6 cells per mouse. The treatment schedule of the intracranially implanted U251 glioblastoma cells was iv, once daily, every sixth day for three treatments (q6d×3), beginning on day four post-implant. The treatment schedule of the intracranially implanted SF-295 glioblastoma cells was iv, once daily, every fourth day for three treatments (q4d×3), beginning on day two post-implant. For the intracranially implanted studies, the compounds were evaluated based on their ability to increase the life span of the animals. The positive control used for both of these tumor models was nitrosourea.
In these experiments, general DCTD, NCI techniques and procedures for in vivo efficacy studies were modified for special application (In Vivo Cancer Models, NIH Publication No. 84-2635, 1984). These studies were conducted in approved facilities (AAALAC Registration No. 000643, AALAS Membership No. 840723001, USDA Registration No. 64-R-001, OPPR, PHS, NIH, AWA, Assurance No. A3046-01). These facilities are ISO 9001 certified. The oversight committee was the Southern Research Institutional Animal Care and Use Committee; the protocol used was IACUC No. 96-8-50.
as §1
Nitrosourea was prepared in 2% ethanol, 98% physiological saline.
as §2, §3, §4
Six to eight week old athymic NCr-nu female mice were used for the intracranially implanted U251 trials. Six to eight week old athymic NCr-nu male mice were used for the intracranially implanted SF-295 trials.
As previously mentioned, this experiment was designed to evaluate the activity of product (Ia) against intracranially U251 and SF-295 glioblastomas in athymic MCr-nu mice. The dosages for product (Ia) were 30, 20 and 13.4 mg/kg/dose. For the two intracranially implanted experiments, cells were prepared at a concentration of 3.33×10^7 cells per ml of media and injected at a volume of 0.03 ml per mouse. The cells were injected into the cerebrum to the right of the midline with a 25 gauge, ⅜ inch, stainless steel needle. Cultured cells were used for the U251 experiment (RP-36). The treatment schedule was q6d×3, iv, beginning on day four, post-implant. A tumor brei, made from solid tumor, was used for the SF-295 experiment (RP-38). The treatment schedule was q4d×3, iv, beginning on day two, post-implant. Nitrosourea was given in each experiment for comparative purposes because of its known activity against CNS tumors. The dosages were 27, 18 and 12 mg/kg/dose and the treatment schedule was the same as the treatment schedule for product (Ia) in each experiment.

[3] = 13.4 mg/kg/dose IV Q6D×3(4), listed as Product I(a)
[4] = 13.4 mg/kg/dose IV Q6D×3(4), listed as product (Ia)
[5] = 20.0 mg/kg/dose IV Q6D×3(4), listed as Product I(a)
[6] = 20.0 mg/kg/dose IV Q6D×3(4), listed as product (Ia)
[7] = 30.0 mg/kg/dose IV Q6D×3(4), listed as Product I(a)
[8] = 30.0 mg/kg/dose IV Q6D×3(4), listed as product (Ia)
[9] = 13.4 mg/kg/dose IV Q4D×3(2), listed as product (Ia)

Structure (SMILES): CO[C@H]1C(=O)[C@]2(C)[C@@H](OC)C[C@H]3OC[C@@]3(OC(C)=O)[C@H]2[C@H](OC(=O)c2ccccc2)[C@]2(O)C[C@H](OC(=O)[C@H](O)[C@@H](NC(=O)OC(C)(C)C)c3ccccc3)C(C)=C1C2(C)C [Product (Ia), 4α-acetoxy-2α-benzoyloxy-5β, 20-epoxy-1β-hydroxy-7β, 10β-dimethoxy-9-oxo-11-taxen-13α-yl (2R,3S)-3 tert-butoxycarbonylamino-2-hydroxy-3-phenylpropionate]
- MEDIAN DAY OF DEATH ([1]; 13.4 mg/kg/dose IV Q6D×3(4)): 83.0 days
- DAYS OF DEATH ([1]; 13.4 mg/kg/dose IV Q6D×3(4)): 69 day (2×) and 83 day (4×) and 122 day
- 122-DAY SURV./TOTAL [1, 3]: 3/10
- % ILS [1, 3]: +144%
- 122-DAY SURV./TOTAL [1, 4]: three of ten
- % ILS [1, 4]: 144%
- MEDIAN DAY OF DEATH ([1]; 20.0 mg/kg/dose IV Q6D×3(4)): 103.0 days
- DAYS OF DEATH ([1]; 20.0 mg/kg/dose IV Q6D×3(4)): 58 day and 98 day and 100 day and 106 day (2×) and 122 day
- 122-DAY SURV./TOTAL [1, 5]: 4/10
- % ILS [1, 5]: +202%
- 122-DAY SURV./TOTAL [1, 6]: four of ten
- % ILS [1, 6]: 202%
- MEDIAN DAY OF DEATH ([1]; 30.0 mg/kg/dose IV Q6D×3(4)): 94.0 days
- DAYS OF DEATH ([1]; 30.0 mg/kg/dose IV Q6D×3(4)): 21 days and 34 days and 94 days and 98 days and 103 days
- 122-DAY SURV./TOTAL [1, 7]: 5/10
- % ILS [1, 7]: +176%
- 122-DAY SURV./TOTAL [1, 8]: five of ten
- % ILS [1, 8]: 176%
- activity against intracranially implanted U251 glioblastoma ([1]; iv q6d×3): quite active
- MTD ([1]; iv q6d×3, U251 experiment RP-36): 20 mg/kg/dose
- 68 DAY SURV./TOTAL ([2]; 13.4 mg/kg/dose IV Q4D×3(2)): 1/10
- % ILS ([2]; 13.4 mg/kg/dose IV Q4D×3(2)): +81%
- MEDIAN DAY OF DEATH ([2]; 13.4 mg/kg/dose IV Q4D×3(2)): 29.0 days
- MEAN ANIMAL WEIGHT ([2]; 13.4 mg/kg/dose IV Q4D×3(2), day 2): 25 GRAMS
- MEAN ANIMAL WEIGHT ([2]; 13.4 mg/kg/dose IV Q4D×3(2), day 5): 24 GRAMS
- MEAN ANIMAL WEIGHT ([2]; 13.4 mg/kg/dose IV Q4D×3(2), day 8): 23 GRAMS
- MEAN ANIMAL WEIGHT ([2]; 13.4 mg/kg/dose IV Q4D×3(2), day 13): 22 GRAMS
- MEAN ANIMAL WEIGHT ([2]; 13.4 mg/kg/dose IV Q4D×3(2), day 15): 20 GRAMS
- MEAN ANIMAL WEIGHT ([2]; 13.4 mg/kg/dose IV Q4D×3(2), day 19): 21 GRAMS
- MEAN ANIMAL WEIGHT ([2]; 13.4 mg/kg/dose IV Q4D×3(2), day 22): 22 GRAMS
- MEAN ANIMAL WEIGHT ([2]; 13.4 mg/kg/dose IV Q4D×3(2), day 26): 21 GRAMS
- MEAN ANIMAL WEIGHT ([2]; 13.4 mg/kg/dose IV Q4D×3(2), day 29): 22 GRAMS
- MEAN ANIMAL WEIGHT ([2]; 13.4 mg/kg/dose IV Q4D×3(2), day 33): 22 GRAMS
- MEAN ANIMAL WEIGHT ([2]; 13.4 mg/kg/dose IV Q4D×3(2), day 37): 26 GRAMS
- MEAN ANIMAL WEIGHT ([2]; 13.4 mg/kg/dose IV Q4D×3(2), day 40): 22 GRAMS
- MEAN ANIMAL WEIGHT ([2]; 13.4 mg/kg/dose IV Q4D×3(2), day 43): 27 GRAMS
- DAYS OF DEATH ([2]; 13.4 mg/kg/dose IV Q4D×3(2)): 34 day and 41 day and 25 day (2×) and 29 day (3×) and 30 day and 32 day
- 68 DAY SURV./TOTAL [2, 9]: one 68-day survivor out of ten animals
- % ILS [2, 9]: 81%
- mean weight loss through the treatment period ([2]; 20 mg/kg dose iv q4d×3): 6 g
- 68 DAY SURV./TOTAL ([2]; 20.0 mg/kg/dose IV Q4D×3(2)): 0/10
- % ILS ([2]; 20.0 mg/kg/dose IV Q4D×3(2)): +94%
- MEDIAN DAY OF DEATH ([2]; 20.0 mg/kg/dose IV Q4D×3(2)): 31.0 days
- MEAN ANIMAL WEIGHT ([2]; 20.0 mg/kg/dose IV Q4D×3(2), day 2): 25 GRAMS
- MEAN ANIMAL WEIGHT ([2]; 20.0 mg/kg/dose IV Q4D×3(2), day 5): 24 GRAMS
- MEAN ANIMAL WEIGHT ([2]; 20.0 mg/kg/dose IV Q4D×3(2), day 8): 21 GRAMS
- MEAN ANIMAL WEIGHT ([2]; 20.0 mg/kg/dose IV Q4D×3(2), day 13): 19 GRAMS
- MEAN ANIMAL WEIGHT ([2]; 20.0 mg/kg/dose IV Q4D×3(2), day 15): 18 GRAMS
- MEAN ANIMAL WEIGHT ([2]; 20.0 mg/kg/dose IV Q4D×3(2), day 19): 19 GRAMS
- MEAN ANIMAL WEIGHT ([2]; 20.0 mg/kg/dose IV Q4D×3(2), day 22): 21 GRAMS
- MEAN ANIMAL WEIGHT ([2]; 20.0 mg/kg/dose IV Q4D×3(2), day 26): 22 GRAMS
- MEAN ANIMAL WEIGHT ([2]; 20.0 mg/kg/dose IV Q4D×3(2), day 29): 19 GRAMS
- MEAN ANIMAL WEIGHT ([2]; 20.0 mg/kg/dose IV Q4D×3(2), day 33): 23 GRAMS
- MEAN ANIMAL WEIGHT ([2]; 20.0 mg/kg/dose IV Q4D×3(2), day 37): 29 GRAMS
- MEAN ANIMAL WEIGHT ([2]; 20.0 mg/kg/dose IV Q4D×3(2), day 40): 29 GRAMS
- MEAN ANIMAL WEIGHT ([2]; 20.0 mg/kg/dose IV Q4D×3(2), day 43): 29 GRAMS
- DAYS OF DEATH ([2]; 20.0 mg/kg/dose IV Q4D×3(2)): 33 day (2×) and 37 day and 54 day and 13 day (2×) and 16 day and 31 day (3×)
- % ILS ([2]; 20.0 mg/kg/dose IV Q4D×3(2), listed as product (Ia)): 94%
- mean weight loss through the treatment period ([2]; 30 mg/kg dose iv q4d×3): 7 g
- 68 DAY SURV./TOTAL ([2]; 30.0 mg/kg/dose IV Q4D×3(2)): 0/10
- % ILS ([2]; 30.0 mg/kg/dose IV Q4D×3(2)): −9%
- MEDIAN DAY OF DEATH ([2]; 30.0 mg/kg/dose IV Q4D×3(2)): 14.5 days
- MEAN ANIMAL WEIGHT ([2]; 30.0 mg/kg/dose IV Q4D×3(2), day 2): 25 GRAMS
- MEAN ANIMAL WEIGHT ([2]; 30.0 mg/kg/dose IV Q4D×3(2), day 5): 23 GRAMS
- MEAN ANIMAL WEIGHT ([2]; 30.0 mg/kg/dose IV Q4D×3(2), day 8): 18 GRAMS
- MEAN ANIMAL WEIGHT ([2]; 30.0 mg/kg/dose IV Q4D×3(2), day 13): 18 GRAMS
- MEAN ANIMAL WEIGHT ([2]; 30.0 mg/kg/dose IV Q4D×3(2), day 15): 19 GRAMS
- MEAN ANIMAL WEIGHT ([2]; 30.0 mg/kg/dose IV Q4D×3(2), day 19): 19 GRAMS
- MEAN ANIMAL WEIGHT ([2]; 30.0 mg/kg/dose IV Q4D×3(2), day 22): 21 GRAMS
- MEAN ANIMAL WEIGHT ([2]; 30.0 mg/kg/dose IV Q4D×3(2), day 26): 21 GRAMS
- MEAN ANIMAL WEIGHT ([2]; 30.0 mg/kg/dose IV Q4D×3(2), day 29): 19 GRAMS
- MEAN ANIMAL WEIGHT ([2]; 30.0 mg/kg/dose IV Q4D×3(2), day 33): 20 GRAMS
- MEAN ANIMAL WEIGHT ([2]; 30.0 mg/kg/dose IV Q4D×3(2), day 37): 18 GRAMS
- MEAN ANIMAL WEIGHT ([2]; 30.0 mg/kg/dose IV Q4D×3(2), day 40): 21 GRAMS
- MEAN ANIMAL WEIGHT ([2]; 30.0 mg/kg/dose IV Q4D×3(2), day 43): 17 GRAMS
- DAYS OF DEATH ([2]; 30.0 mg/kg/dose IV Q4D×3(2)): 40 day and 41 day and 47 day and 11 day and 13 day (2×) and 14 day (2×) and 15 day and 30 day
- activity against intracranially implanted SF-295 glioblastoma ([2]; iv q4d×3): quite active
- MTD ([2]; iv q4d×3, SF-295 experiment RP-38): 13.4 mg/kg/dose
